Test: in vitro
Description: The spheron component peptides in phosphate buffered saline (PBS) were incubated alone and in combination into glioma cell cultures and neuroblastoma cell cultures. Controls of
Cryopreserved glioma and neuroblastoma cells were acquired from the American Type Culture Collection (ATCC), Virginia. Cells were thawed and diluted in suspension media and centrifuged at 700 rpm for 7 minutes at 4 C. Cell pellets then were resuspended in CACO-2 media and cultured in standard 75 or 175 cm^2 flasks at 37 C, 5% CO(2) until approximately confluent. The cells were then trypsinized and resuspended in CACO-2 media to achieve a final cell density of 1.5×10^5 cells/mL. 50 μL aliquots per sample were then added per well to 96 well plates.
For Experiment I, 50 μL of either PBS (phosphate buffered solution) (negative control), 100 μM tamoxifen in phosphate buffered saline PBS (positive control), or test article were added to each sample culture.
An MTT assay is a sensitive assay for the measurement of cell proliferation based upon the reduction of the tetrazolium salt 3,[4,5-dimetylthiazol-2-yl]-2,5-diphenyltetrazolium bromide (MTT). […] Plates were then agitated gently for 1 minute on a rotary shaker and the difference between emission absorbance of 570 nm and background absorbance of 650 nm was measured spectrophotometrically on an automated plate reader. […]

Work on `CC/C(=C(\c1ccccc1)c1ccc(OCCN(C)C)cc1)c1ccccc1` [Tamoxifen, tamoxifen] yielded a viability at 4 days, 100 µM of 63%.

— patent publication US20040002460A1, “Spheron components useful in determining compounds capable of treating symptoms of Alzheimer's disease, and treatments and animal models produced therefrom” (priority 2002, published 2004)
